Source: patent publication US11590117B2, “Treatment of a hematologic malignancy with 2-(4-chlorophenyl)-n-((2-(2,6-dioxopiperidin-3-yl)-1-oxoisoindolin-5-yl)methyl)-2,2-difluoroacetamide” (priority 2016, dated 2023)
Read-outs that look alike come from different tables or passages of the source.

How the values were obtained:
Assay type in all cases: cell-based
KG-1 = assay: IncuCyte live cell imaging of cell viability, Red-labeled cell line; settings: Homo sapiens, Red-labeled KG-1, read-out: Inhibition of Cell Viability EC50
Procedure: (§1) Derivation of Red-labeled Acute Myeloid Leukemia Cell Lines: Twelve cell lines, including AML-193, HL-60, KG-1, ML-2, MOLM-13, MV-4-11, NOMO-1, OCI-AML2, OCI-AML3, SIG-M5, TF-1, and THP-1, were stably transduced with Red lentivirus. Cells were plated in 6-well plates in growth media, incubated with 8 µg/mL polybrene (EMD Millipore Cat no. TR-1003-G) followed by infection with CellPlayer™ NucLight™ Red-lentiviral particles (Essen Biosciences Cat no. 4478) at a multiplicity of infectivity (MOI) of 0.5 to 2.5 for 24 hours. MOI refers to the ratio of virus particles to cells. Virus-containing media was replaced with fresh growth media and incubated for an additional 24 to 48 hours, followed by selection with Zeocin (500 to 2000 μg/mL), a derivative of bleomycin (Life Technologies-Invitrogen Cat no. R250-01). Cells were selected with fresh Zeocin every 3 to 4 days for 3 to 8 weeks. Cells were periodically viewed using fluorescent microscopy for nuclear-restricted red fluorescence. Zeocin selection was terminated once the population was confirmed to stably fluoresce red. All Red-labeled cell lines were acclimated to EMEM containing 20% FBS, with or without GM-CSF supplementation, allowing for optimal live cell imaging.
(§2) Incubation of Cell Cultures with Compound 1: Compound 1 was provided for studies by Celgene chemistry group at a stock concentration of 30 mM in 20 μL dimethyl sulfoxide (DMSO) frozen. Costar 96-well cell culture plates (Corning Cat no. 3595) were coated with 100 μL of 10 µg/mL fibronectin (Sigma-Aldrich Cat no. F1141) for 4 hours at 37° C. and immediately used or refrigerated overnight for later use. Cells (3000 to 6000 cells) were plated in growth medi in fibronectin-coated 96-well plates and incubated for a minimum of a few hours to overnight. Cells were incubated with a 12-point concentration response in triplicate with Compound 1 ([…]) including DMSO and Media controls. A 3-fold serial dilution of Compound 1 starting from a concentration of 200 μM in 0.6% DMSO (diluted in Media) was performed. For most sensitive cell lines, a 3-fold serial dilution of Compound 1 starting from a concentration of 20 μM in 0.6% DMSO (diluted in media) was performed. A volume of 5 μL or 10 μL for each dilution was added to 100 μL or 200 μL cells, respectively (0.3% DMSO final) and incubated for live cell imaging.
(§3) Live Cell Imaging on IncuCyte Zoom: Following incubation of cells with Compound 1, diluted Caspase 3/7 reagent (Essen Biosciences Cat no. 4440) is added to each well. The Caspase-3/7 reagent couples the activated caspase-3/7 recognition motif (DEVD) to NucView™488, a DNA intercalating dye. The cleavage of substrate by activated caspase-3/7 results in the release of the DNA dye and green fluorescent staining of nuclear DNA. This allows imaging of cells undergoing caspase-3/7 mediated apoptosis over time. Caspase-3/7 activation was quantified using the IncuCyte™ ZOOM basic analyzer. Red-labeled cell lines were also imaged over time using the IncuCyte™ ZOOM basic analyzer, for determination of both cell doubling time and Compound 1 effect on cell viability. Experiments were performed at least two times in each cell line.
(§4) Next, a 4 parameter log-logistic model was used to determine relative EC50 at each time point by the ‘drm’ function from the R ‘drc’ package (Ritz C, Streibig J C. Bioassay Analysis using R. J. Statist. Software 2005; 12(5):1-22). Goodness of fit was measured by R squared (coefficient of determination or the amount of variation explained by the model fit) of ≥80%, and EC50 parameter was assessed by having a ratio of standard error to the parameter of ≤40%, and the presence of at least one concentration point above and below the reported EC50.
(§5) Twelve Red-labeled human AML cell lines, established as described above, were incubated with Compound 1 dose range (0 to 10 μM) and Red fluorescence or Object count was imaged over time, as described above. […]

MOLM-13 = assay: as above; settings: Homo sapiens, Red-labeled MOLM-13, read-out: Inhibition of Cell Viability EC50
Procedure: as §1, §2, §3, §4, §5

THP-1 = assay: as above; settings: Homo sapiens; Red-labeled THP-1; 96 hr; read-out: Inhibition of Cell Viability EC50
Procedure: as §1, §2, §3, §4, §5

[1] = tested on: Bone marrow CD34+ cells from healthy donors (myeloid differentiation); assay: Neutrophil maturation ex vivo, bone marrow CD34+ cells, flow cytometry
Procedure: Compound 1 effects on the proliferation of CFU-GM progenitor cells are of special relevance because of the role of these progenitor cells in drug-induced neutropenia. Neutrophils are derived from CFU-GM progenitors occurring through distinct stages, from progenitor cells through myeloblasts (stage I), promyelocytes (stage II) and myelocytes (stage III) that finally mature towards neutrophils with banded or segmented nuclei. The effects of Compound 1 on neutrophil maturation were determined by using two-dimensional cultivation of progenitors followed by flow cytometry. Bone marrow CD34+ cells obtained from healthy volunteers were transferred to tissue culture medium and myeloid differentiation was induced ex vivo by adding stem cell factor (SCF), Fms-related tyrosine kinase 3 ligand (Flt-3 ligand), and granulocyte colony stimulating factor (G-CSF). Concentrations of Compound 1 up to 30 nM and exposure times of 8, 24, and 72 hours starting at Day 0 were selected to evaluate the effect of Compound 1 in this system. After exposure to Compound 1, cells were washed and then incubated in culture medium in the absence of Compound 1 until Day 14. Cell differentiation and apoptosis were measured in a flow cytometry-based method at Days 3, 7, 10, and 14 of culture, with apoptotic and dead cells identified as Annexin V positive and 7-aminoactinomycin D positive.
In FIG. 34, Bone marrow C34+ cells from healthy donors were incubated with 30 nM Compound 1 or DMSO. Compound 1 was washed out after 8, 24 or 72 hours, the medium was replaced, and the cultures were incubated until Day 14 in the absence of Compound 1 or DMSO. Cells were classified from most immature to most mature as HPC, Stage I, Stage II, Stage III and Stage IV according to their expression of CD34, CD33 and CD11b. Then apoptotic cells from each stage were identified as positive for Annexin V and labeled as AV+ HPC, AV+ Stage I, AV+ Stage II, AV+ Stage II and AV+ Stage IV. […] Representative results are shown for bone marrow progenitors from one of two healthy donors evaluated. […]

Q: O=C1CCC(N2Cc3cc(CNC(=O)C(F)(F)c4ccc(Cl)cc4)ccc3C2=O)C(=O)N1 (stereo not shown) [Compound 1, 2-(4-chlorophenyl)-N-((2-(2,6-dioxopiperidin-3-yl)-1-oxoisoindolin-5-yl)methyl)-2,2-difluoroacetamide] was tested. Which EC50 (KG-1; 48 hr) did it give?
A: Its EC50 is 7 nM.

Q: What about the EC50 (KG-1; 72 hr) of the same molecule?
A: Its EC50 is 7 nM.

Q: And the EC50 (KG-1; 96 hr)?
A: The EC50 was 7 nM.

Q: What about the EC50 (MOLM-13; 48 hr) of the same molecule?
A: The EC50 was 143 nM.

Q: And the EC50 (MOLM-13; 72 hr)?
A: Its EC50 is 208 nM.

Q: What about the EC50 (MOLM-13; 96 hr) of the same molecule?
A: The EC50 was 248 nM.

Q: What about the EC50 (THP-1) of the same molecule?
A: The EC50 was 61 nM.

Q: And the “viability during neutrophil maturation” value ([1]; 30 nM (highest concentration tested), exposure 24 hours and 72 hours)?
A: The value was “decreased”.

Q: What about the “cell viability after removal of Compound 1” value ([1]; 30 nM, cultures exposed for 24 hours) of the same molecule?
A: Its value is “reaching control values at Day 10”.

Q: And the “viability during neutrophil maturation” value ([1]; ≤3 nM in 24-hour and 72-hour exposure groups, or 0.03 to 30 nM with 8 hours exposure)?
A: Its value is “no reduction in viability”.
